# From publication PMC8536124 (International Journal of Molecular Sciences, 2021)
# Marks after values point to notes of the source that are not given here.
# Legend:
# A375 cells = experiment: Cell morphology and confluence; type: cell-based, human; conditions: 24 h
# Protocol: A morphological examination of the tested cells was conducted in order to provide additional data for the investigated compounds in terms of their biological activity.
# M14 = experiment: NCI-60 screening (SRB); type: cell-based, human; conditions: five-dose; for GI50 / CC50: Homo sapiens; for CC50: read-out: LC50 (the source's name)
# chorioallantoic membrane = experiment: Chorioallantoic membrane (CAM) angiogenesis assay; type: in vivo, chicken; conditions: 1 µM in 0.5% DMSO
# Protocol: CAM test also allows the assessment of a drug’s activity on tumor proliferation and distant metastasis, as well as drug toxicity. […] No anomalies were noticed in the angiogenic process after treatment with 0.5% DMSO in distilled water used as control.
# The basic CAM assay protocol makes use of fertilized chicken eggs, incubated at 37 °C, under controlled humidity. On the third day of incubation (embryonic day of development, EDD), a small opening was made at one end of the eggs and 5–6 mL of albumen were removed, thus facilitating the separation of the chorioallantoic membrane. On EDD 4, a window was cut on the upper side of the egg and subsequently resealed, returning the specimens to the incubator. On EDD 7 (0 h), 10 µL of each test solution were administered inside a plastic ring previously applied on the intensely vascularized surface of the CAM [93]. All compounds were tested at a concentration of 1 µM in DMSO 0.5%, which also represented the control sample. All samples were daily applied in the same volume, for 72 h. For each analyzed sample, 5 eggs were used, and all samples were applied in triplicate. Macroscopic evaluation was daily performed in ovo by means of stereomicroscopy (ZEISS SteREO Discovery.V8, Göttingen, Germany), and all images were registered and processed by Axiocam 105 color, AxioVision SE64. Rel. 4.9.1 Software, (ZEISS Göttingen, Germany), ImageJ (ImageJ Version 1.50e, https://imagej.nih.gov/ij/index.html, accessed on 3 June 2021) and GIMP software (GIMP v 2.8, https://www.gimp.org/, accessed on 3 June 2021).
# Bcl-XL gene, SK-Mel-28 = experiment: Gene expression by qRT-PCR; type: cell-based, human; conditions: 1 μM, mean 2^∆∆Ct, DMSO 4.730
# Description: (§1) Apoptosis at the cellular level can be initiated through the mitochondrial intrinsic pathway, which involves the Bcl-2 family of genes that includes the anti-apoptotic Bcl-XL and Bcl-2, as well as the pro-apoptotic Bak and Bax members; the balance between the expressions of anti- and pro-apoptotic proteins ensures physiological cell death. In cancers, the alterations occurring in gene expressions due to down- or up-regulations may result in delayed apoptosis and malignant proliferation. Thus, active compounds that modify the abnormal expression of genes involved in the apoptotic process may successfully act as anticancer agents. We tested the effect of compounds 4 and 6 on the expression of anti-apoptotic (Bcl-XL and Bcl-2) and pro-apoptotic (Bak and Bax) genes (Table 4, Figure 8).
# (§2) Total RNA was extracted using peqGold RNAPureTM Package (Peqlab Biotechnology GmbH, Erlangen, Germany) according to the manufacturer’s instructions, and a DS-11 spectrophotometer (DeNovix, Wilmington, DE, USA) was used to measure total concentration of RNA. Reverse transcription was performed using the Maxima® First Strand cDNA Synthesis Kit (Fermentas, St. Leon-Rot, Germany), and the mix was incubated in the Tadvanced biometra product line (Analytik Jena AG, Jena, Germany) with a thermal program of 25 °C for 10 min, 85 °C for 5 min. Quantitative real-time PCR was conducted in a Quant Studio 5 real-time PCR system, (Thermo Fisher Scientific, Inc., Waltham, MA, USA), with analysis being performed in 20 µL reactions containing Power SYBR-Green PCR Master Mix (Thermo Fisher Scientific, Inc.). Cycling conditions were: 95 °C for 10 s followed by 40 cycles of denaturing at 95 °C for 15 s, and annealing and extension at 60 °C for 1 min.
# BAX gene, RPMI = experiment: Gene expression by qRT-PCR; type: cell-based, human; conditions: 1 μM, mean 2^∆∆Ct, DMSO 3.040
# Description: as §1, §2
# BAK gene, SK-Mel-28 = experiment: Gene expression by qRT-PCR; type: cell-based, human; conditions: 1 μM, mean 2^∆∆Ct, DMSO 1.383
# Description: as §1, §2
# BAX gene, SK-Mel-28 = experiment: Gene expression by qRT-PCR; type: cell-based, human; conditions: 1 μM, mean 2^∆∆Ct, DMSO 2.086
# Description: as §1, §2
# BAX gene, A375 = experiment: Gene expression by qRT-PCR; type: cell-based, human; conditions: 1 μM, mean 2^∆∆Ct, DMSO 4.063
# Description: as §1, §2
# Bcl-2 gene, SK-Mel-28 = experiment: Gene expression by qRT-PCR; type: cell-based, human; conditions: 1 μM, mean 2^∆∆Ct, DMSO 2.573
# Description: as §1, §2
# BAK gene, A375 = experiment: Gene expression by qRT-PCR; type: cell-based, human; conditions: 1 μM, mean 2^∆∆Ct, DMSO 5.200
# Description: as §1, §2
# Bcl-2 gene, RPMI = experiment: Gene expression by qRT-PCR; type: cell-based, human; conditions: 1 μM, mean 2^∆∆Ct, DMSO 4.063
# Description: as §1, §2
# BAK gene, RPMI = experiment: Gene expression by qRT-PCR; type: cell-based, human; conditions: 1 μM, mean 2^∆∆Ct, DMSO 4.163
# Description: as §1, §2
# Bcl-2 gene, A375 = experiment: Gene expression by qRT-PCR; type: cell-based, human; conditions: 1 μM, mean 2^∆∆Ct, DMSO 2.216
# Description: as §1, §2
# Bcl-XL gene, A375 = experiment: Gene expression by qRT-PCR; type: cell-based, human; conditions: 1 μM, mean 2^∆∆Ct, DMSO 4.550
# Description: as §1, §2
# Bcl-XL gene, RPMI = experiment: Gene expression by qRT-PCR; type: cell-based, human; conditions: 1 μM, mean 2^∆∆Ct, DMSO 18.563
# Description: as §1, §2
# SR = experiment: NCI-60 screening (SRB); type: cell-based, human; conditions: five-dose; for GI50 / CC50: Homo sapiens; for CC50: read-out: LC50 (the source's name)
# [1] = EDD7 to EDD10, up to 72 h post-treatment
SMILES,GI50 (M14),CC50 (M14),TGI (M14),effect on angiogenesis (CAM) (chorioallantoic membrane; [1]),"Expression of Bcl-XL gene, Mean (Bcl-XL gene, SK-Mel-28)","Expression of BAX gene, Mean (BAX gene, RPMI)","Expression of BAK gene, Mean (BAK gene, SK-Mel-28)","Expression of BAX gene, Mean (BAX gene, SK-Mel-28)","Expression of BAX gene, Mean (BAX gene, A375)","Expression of Bcl-2 gene, Mean (Bcl-2 gene, SK-Mel-28)","Expression of BAK gene, Mean (BAK gene, A375)","Expression of Bcl-2 gene, Mean (Bcl-2 gene, RPMI)","Expression of BAK gene, Mean (BAK gene, RPMI)","Expression of Bcl-2 gene, Mean (Bcl-2 gene, A375)","Expression of Bcl-XL gene, Mean (Bcl-XL gene, A375)",GI50 (SR),CC50 (SR),TGI (SR),further results
"CCN1CCN(C(=O)[C@]23CC[C@@H](C)[C@H](C)[C@H]2C2=CC[C@@H]4[C@@]5(C)CCC(=O)C(C)(C)[C@@H]5CC[C@@]4(C)[C@]2(C)CC3)CC1 [Compound 4, N-(3-oxo-ursan-12-en-28-oyl)-ethylpiperazine]",794 nM,3280 nM,1610 nM,no alterations were noticed in terms of angiogenesis,0.086 ***,0.460 **,101.820 **,0.023 ***,0.270 ***,0.083 *,0.706 ***,1.483 *,156.243 ***,0.7366 **,0.500 *,–,–,–,cell morphology and confluence (A375 cells; 0.1 μM): caused cell death; cell morphology and confluence (A375 cells; 1 and 5 μM): visible loss of cell confluence
CCN1CCN(C(=O)[C@]23CCC(C)(C)C[C@H]2C2=CC[C@@H]4[C@@]5(C)C/C(=C/c6cccnc6)C(=O)C(C)(C)[C@@H]5CC[C@@]4(C)[C@]2(C)CC3)CC1 [Compound 6],1600 nM,6200 nM,3150 nM,did not significantly alter the angiogenesis process,0.003 ***,0.640 **,91.283 ***,0.140 ***,0.590 ***,0.083 **,0.516 ***,0.236 ***,11.853 **,1.166,0.300,959 nM,> 100000 nM,5130 nM,"cell morphology and confluence (A375 cells; all concentrations (0.1, 1, 5 μM)): noticeable decrease in cell confluence; effect on angiogenesis (CAM) (chorioallantoic membrane; after 24 h): weak antiangiogenic process; Expression of Bcl-XL gene, Mean (Bcl-XL gene, RPMI): 1.050 *"
"CCN1CCN(C(=O)[C@]23CC[C@@H](C)[C@H](C)[C@H]2C2=CC[C@@H]4[C@@]5(C)C/C(=C/c6cccnc6)C(=O)C(C)(C)[C@@H]5CC[C@@]4(C)[C@]2(C)CC3)CC1 [Compound 9, N-(2-{3-Pyridinylidene}-3-oxoursan-12-en-28-oyl)-ethylpiperazine]",–,–,–,–,–,–,–,–,–,–,–,–,–,–,–,2180 nM,> 100000 nM,6350 nM,–
